This note sets out measurements from patent publication US10550422B2, “Methods and compositions for labeling nucleic acids” (President and Fellows of Harvard College, priority 2005, dated 2020).

The structures appear in SMILES notation.

The subject of test [1] is HeLa cells. The test can be described thus: AdU labeling of HeLa cells, stained with Alexa568-alkyne. As to conditions: 10 μM AdU overnight, 10 μM Alexa568-alkyne; FIG. 16. The class given is cell-based. The protocol:
Here HeLa cells were labeled overnight in 10 μM AdU and then stained with 10 μM Alexa568-alkyne using the conditions described herein for staining cells labeled with EdU. FIG. 16 presents two pictures of a field of the stained HeLa cells.

The test system of test [2] is HeLa cells. The test can be described thus: EdU labeling of HeLa cells, fixed/permeabilized, stained with Xrhodamine-azide (click chemistry). Format: cell-based. As to conditions: 1 μM EdU, cell in anaphase, FIG. 11. The procedure:
Ethynyl-dU (EdU) was used in tissue culture media (DMEM complemented with penicillin, streptomycin, and fetal calf serum (FCS)) ranging from 10 nM to 1 μM depending on the length of the labeling pulse. For example, if cells to be labeled were synchronized in the S phase, 100 nM to 1 μM of EdU was used for 1 to 2 hours. After labeling, the cells were washed 3 or 4 times with PBS and then tissue culture media was added.
Staining Solution: 100 mM Tris pH 8.5 (from 2 M stock in water), 0.5 to 1 mM CuSO4 (from 1 M stock in water), 0.5 to 1 μM fluorophore-azide (from approximately 10-100 mM stock in DMSO), and water (as required) were mixed together. Ascorbic acid (from a […] stock in water) was then added to this solution to a final concentration of 50-100 mM, and the resulting staining solution is mixed thoroughly using a vortex.
Cells can be fixed by any suitable method, e.g., cells can be fixed by aldehyde fixation (formaldehyde or glutaraldehyde), with or without permeabilization. After fixation, the cells were washed in buffer with or without non-ionic detergent (0.2-0.5% Triton X100). Before staining, cells were rinsed with buffer without detergent (PBS or TBS). The cells were then incubated in the presence of the staining solution for at least 30 minutes. Overnight staining is preferably performed in a cold room. […]

Test [3] concerns HeLa cells. The test is described as follows: Time-lapse fluorescence imaging of EdU-labeled live cells stained with TMR-propyl-azide. The class given is cell-based. As to conditions: 200 nM TMR-propyl-azide, 25 mM ascorbate, 1 mM copper (II) sulfate, 37° C.; FIG. 7. The protocol:
Ascorbic acid (from a […] stock in water) was then added to this solution to a final concentration of 50 mM, and the resulting staining solution is mixed thoroughly.
Washes with methanol or ethanol may be performed to obtain low background
To facilitate live microscopic imaging, EdU-labeled cells were plated in coverslip chambers which were mounted on the heated stage (37° C.) of an inverted Nikon TE200)U microscope equipped for wide-field fluorescence microscopy as well as spinning-disk confocal fluorescence microscopy (Yokogama spinning disk confocal head from Perkin-Elmer). […] The cells were imaged by time-lapse fluorescent microscopy (one frame every 15 seconds) to detect the TMR signal accumulating in the nuclei of the EdU-labeled cells.

Test [4] deals with mouse intestine and brain. The test can be described thus: In vivo EdU labeling of mice, organ sections stained with Xrhodamine-azide and Hoechst. As to conditions: 200 micrograms EdU intraperitoneally, organs harvested three days later. The protocol: BLAB/C mice were injected with 200 micrograms of EdU intraperitoneally. Three days later, organs were harvested, fixed, embedded in paraffin and sectioned. The sections were then de-waxed and stained with Xrhadomine-azide for 5 minutes, stained with Hoechst, washed and then mounted.

Test [5] relates to HeLa cells. The test is described as follows: Tracing a single sister chromatid: EdU pulse, chase of two cell cycles, Alexa568-azide stain. Format: cell-based. The note with it: EdU pulse during DNA synthesis, Alexa568-azide with permeabilization, FIG. 13. An excerpt:
The purpose of the experiment reported herein was to label only one DNA molecule of the two that form a chromosome. That was accomplished by pulsing HeLa cells with EdU during DNA synthesis followed by a chase lasting two cell cycles, as depicted on FIG. 12. […] EdU allowed very nice resolution imaging of chromosomes in cells as shown by FIG. 13.

For the compound `[N-]=[N+]=Nc1cn([C@H]2C[C@H](O)[C@@H](CO)O2)c(=O)[nH]c1=O` [AdU, 5-azido-2′-deoxyuridine], the “detection of AdU in labeled cells” value in test [1] is listed as “clearly detected in the nuclei of the labeled interphase cells as well as in the condensed chromosomes of mitotic cells”.
As for `C#Cc1cn([C@H]2C[C@H](O)[C@@H](CO)O2)c(=O)[nH]c1=O` [EdU, 5-ethynyl-2′deoxyuracil], in test [2], the “EdU stain of cellular DNA (fluorescence microscopy)” value was “only the DNA replicating during the pulse was labeled”. Further, the “time to complete EdU detection on live cells” value in test [3] is recorded as “complete within minutes”. Further, in test [4] (FIG. 8), the “EdU incorporation in intestine section” value is “The cells with red nuclei are the cells which incorporated EdU and their descendants”. For the same compound, the “EdU-labeled cells in brain section” value in test [4] (FIG. 10) is recorded as “A sole EdU-labeled cell can be easily identified”. Moreover, the “DNA molecules of a chromosome labeled after first and second mitosis” value in test [5] is “In the first mitosis after labeling, both DNA molecules were labeled while in the second mitosis only one DNA molecule was labeled”.
